The record followed here is US6040320A, “2-substituted imidazoles useful in the treatment of inflammatory diseases” (Ortho-McNeil Pharmaceutical, Inc., priority 1998, dated 2000).

Where two headings read alike, the source gives them in different places.

The target of one assay is T1, p38 (Homo sapiens, UniProt Q16539).
T1 construct: 6xHis (N); made in house; host or cells: E. coli
The assay can be described thus: in vitro inhibition of p38 (CPSB): purified recombinant 6xHis-p38, myelin basic protein substrate, 33P-ATP. The format is biochemical.

Assay [1] concerns TNF-α. As to the kind of experiment: in vitro whole cell assay: LPS-stimulated TNF-α production in PBMC (ELISA). The format is cell-based, human. To be noted: for IC50: read-out: TNF-α IC50. As for the experimental part: In addition to the enzyme assay, the compounds of the invention were tested in an in vitro whole cell assay using peripheral blood mononuclear cells ("PBMC") which were obtained from human blood as follows. Freshly obtained venous blood was anticoagulated with heparin, diluted with an equal volume of phosphate buffered saline ("PBS") and placed in a sterile tube or other container. Aliquots (30 mL) of this mixture were transferred to centrifuge tubes which were underlaid with Ficoll-Hypaque (15 mL). The prepared tubes were centrifuged at 400×g without braking for 30 min at room temperature. Approximately 1/2 to 2/3 of the platelet layer above the mononuclear cell band was removed with a pipet. The majority of the mononuclear cell layer was carefully removed using a pipet and these PBMCs were diluted with PBS and spun at 600×g for 15 min. The resulting PBMCs were washed with another portion of PBS and spun at 400×g for 10 min at room temperature. The recovered pellets were diluted in low endotoxin RPMI/1% FCS culture medium and gave a cell concentration of 0.5-2.0 X 10^6 PMBC/mL. A small volume of the suspension was removed for counting on a hemocytometer and the remaining preparation was centrifuged at 200×g for 15 min at room temperature. The recovered pelleted PMBC were resuspended in RPMI/1% FCS to a concentration of 1.67×10^6 /mL.
To run the assay, the PBMC suspension (180 μL) was transferred to duplicate wells of a 96-well flat-bottom microtiter plate and incubated for 1 h at 37° C. A solution of test compound (10 μL: prepared at 20×the desired final concentration) was added to each well and the plate was incubated for 1 h at 37° C. A solution (10 μL) of LPS in RPMI/1% FCS (200 ng/mL) was added and the wells were incubated overnight at 37° C. The supernate (100 μL) was removed from each well and diluted with RPMI/1% FCS (400 μL). The samples were analyzed for TNF-α using a commercial ELISA kit (Genzyme). […] Since imidazoles which are unsubstituted at the 1-position are subject to tautomerization, the substituents listed for R1 and R2 are interchangeable when R3 is hydrogen.

A further assay deals with IL-1β. The assay can be described thus: in vitro IL-1β production by LPS-stimulated plastic-adherent cells from PBMC (ELISA). It is filed as cell-based. Particulars: adherent cells from human PBMC, read-out: inhibited the production of IL-1B, IC50. On the procedure:
Aliquots (30 mL) of this mixture were transferred to centrifuge tubes which were underlaid with Ficoll-Hypaque (15 mL). The prepared tubes were centrifuged at 400×g without braking for 30 min at room temperature. […] A small volume of the suspension was removed for counting on a hemocytometer and the remaining preparation was centrifuged at 200×g for 15 min at room temperature.
(In general: ELISA stands for enzyme-linked immunosorbent assay.)

Assay [2] concerns TNF-α. The assay can be described thus: in vivo rodent assay: inhibition of LPS induced TNF-α production, mouse. Particulars: oral, 25 mg/kg, LPS 1 mg/kg i.p. On the procedure:
Mice (BALB / cJ females, Jackson Laboratories) or rats (Lewis males, Charles River) were fasted for 30 min prior to oral dosing with 5-10 mL/kg of test compound at 5-50 mg/kg. Thirty minutes after dosing, the animals were injected intraperitoneally with LPS at 1 mg/kg and returned to their cages for I h. Animals were anesthetized by CO2, exsanguinated by cardiac puncture and whole blood collected (0.1-0.7 mL). The blood was allowed to clot and serum was transferred to a centrifuge tube. This sample was centrifuged, serum was collected, aliquoted and frozen at -80° C. Samples were tested by commercial ELISAs for TNF-α (Endogen for mouse TNF-α and Biosource for rat TNF-α). Compounds 15 and 56 inhibited TNF-α production in the mouse at 88% and 37% respectively at a dose of 25 mg/kg.

T1 sequence (Q16539 whole entry): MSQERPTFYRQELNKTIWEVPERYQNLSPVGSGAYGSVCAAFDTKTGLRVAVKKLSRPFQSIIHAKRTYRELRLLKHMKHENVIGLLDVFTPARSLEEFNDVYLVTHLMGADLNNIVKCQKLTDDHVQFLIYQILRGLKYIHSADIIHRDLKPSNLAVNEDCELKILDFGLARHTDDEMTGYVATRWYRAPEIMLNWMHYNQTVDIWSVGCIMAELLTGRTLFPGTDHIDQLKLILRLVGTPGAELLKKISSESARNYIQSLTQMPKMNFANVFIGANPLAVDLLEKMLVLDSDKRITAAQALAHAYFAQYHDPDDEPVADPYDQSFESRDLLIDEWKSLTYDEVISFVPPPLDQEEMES
Experimental for p38: Compounds of the invention were measured for their ability to inhibit the activity of p38 by the following in vitro assay.
A solution (38 μL) of purified recombinant p38 (where the amount of enzyme was determined empirically considering the linear range of the assay and the acceptable signal to noise ratio; 6xHis-p38 expressed in E.coli), myelin basic protein substrate (also determined empirically), a buffer of pH 7.5 (Hepes:25 mM, MgCl2 :10 mM, MnCl2 :10 mM) were added to 92 wells of a 96-well round bottom polypropylene plate. The remaining wells were used for control ("CTRL") and background ("BKG"). The CTRL was prepared with the enzyme, substrate buffer and 2% DMSO, and the BKG was prepared with substrate buffer and 2% DMSO. A solution (12 μL) of the test compound in DMSO (compounds were diluted to 125 μM in 10% DMSO/H2 O and assayed at 25 μM where the final DMSO concentration was 2%) was added to the testing wells. The ATP/^33 P-ATP solution (10 μL: containing 50 μM unlabeled ATP and 1 μCi ^33 P-ATP) was added to all wells and the completed plates were mixed and incubated at 30° C. for 30 min. Icecold 50% TCA/10 mM sodium phosphate (60 μL) were added to each well and the plates were kept on ice for 15 min. The contents of each well were transferred to the wells of a 96-well filterplate (Millipore, MultiScreen-DP) and the filterplate was placed on a vacuum manifold, fitted with a waste collection tray. The wells were washed five times with 10% TCA/10 mM sodium phosphate (200 μL) under vacuum. MicroScint-20 scintillant was added, the plates were sealed using Topseal-S sheets and counted in a Packard TopCount scintillation counter using a ^33 P liquid program with color quench correction, where the output is in color quench-corrected cpm. The % inhibition of the test compounds was calculated by the following formula: % inhibition=[1-(sample-BKG)/(CTRL-BKG)]×100.
Although compounds were initially tested at 25 μM, if warranted the compounds were tested at 4-fold increments above and below that concentration. In addition, lC50 s were calculated for some compounds using the Deltagraph 4-parameter curve fitting program.

One may read the IC50 as the concentration that gives 50% inhibition. In the case of `O=C1c2ccccc2C(=O)N1CCCCSc1nc(-c2ccncc2)c(-c2ccc(F)cc2)[nH]1` [Compound 27], the half-inhibitory concentration (IC50) stood at 2460 nM on p38 and 2000 nM in the assay on TNF-α [1] (Homo sapiens, PBMC).
As to `OCCCCc1nc(-c2ccncc2)c(-c2ccc(F)cc2)[nH]1` [Compound 16b, 4-[5(4)-(4-Fluorophenyl)4(5)-(4-pyridyl)imidazol-2-yl]butanol], the IC50 turned out to be 1590 nM on p38 and 10 nM in the assay with TNF-α [1] (Homo sapiens, PBMC).
Regarding `O=C(CCCO)c1nc(-c2ccncc2)c(-c2ccc(F)cc2)[nH]1` [Compound 10, 4-Hydroxy-1-[5-(4-fluorophenyl)-4-(4-pyridyl)-imidazol-2-yl]butanone], the IC50 with IL-1β worked out at 800 nM; in the assay with TNF-α [1] (human PBMC, LPS), 400 nM.
For the compound `O=S(=O)(CCO)Cc1nc(-c2ccncc2)c(-c2ccc(F)cc2)[nH]1` [Compound 15, 5-(4-Fluorophenyl)-2-[4-hydroxy-2-sulfonyl-but-1-yl]-4-(4-pyridyl)-imidazole], the IC50 in the assay with TNF-α [1] (human PBMC, LPS) is 40 nM. Besides, the “inhibited TNF-α production in the mouse” value in the assay with TNF-α [2] is 88%.
Turning to `C[Si](C)(C)CCOCn1c(CO)nc(-c2ccncc2)c1-c1ccc(F)cc1` [Compound 36], at p38 (@ 5 μm), the CPSB % inhibition is 6%.
Turning to `CC(=O)OCCCCc1nc(-c2ccncc2)c(-c2ccc(F)cc2)n1COCC[Si](C)(C)C` [Compound 45], the CPSB % inhibition on p38 (@ 20 μm) came out at 8%. Also, the “TNF-α inhibition in words” value in the assay with TNF-α [1] (human PBMC, LPS) is “inactive”.
Consider `CCCS(=O)(=O)Cc1nc(-c2ccncc2)c(-c2ccc(F)cc2)[nH]1` [Compound 59], for which the IC50 was 350 nM in the assay on IL-1β and 55 nM in the assay with TNF-α [1] (human PBMC, LPS).
Turning to `O=S(=O)(NCCCSc1nc(-c2ccc(F)cc2)c(-c2ccncc2)[nH]1)c1ccccc1` [Compound 30], at p38 (@ 20 μm), the CPSB % inhibition is on record as 92%. Further, the IC50 with TNF-α [1] (human PBMC, LPS) came out at 100 nM.
In the case of `O=C(NCCCSc1nc(-c2ccncc2)c(-c2ccc(F)cc2)[nH]1)c1cccc2ccccc12` [Compound 28], the IC50 came to 86 nM with IL-1β; 1250 nM on p38; 97 nM in the assay with TNF-α [1] (Homo sapiens, PBMC).
For `CCSc1nc(-c2ccncc2)c(-c2ccc(F)cc2)[nH]1` [Compound 39], the IC50 at p38 worked out at 400 nM.
For `CCOC(CCSc1nc(-c2ccncc2)c(-c2ccc(F)cc2)[nH]1)OCC` [Compound 20], the IC50 at p38 came out at 2000 nM.
Turning to `O=C(NCCCSc1nc(-c2ccncc2)c(-c2ccc(F)cc2)[nH]1)c1cccs1` [Compound 4, 5(4)-(4-Fluorophenyl)-2-(3-(thien-2-ylamido)prop-1-yl)thio-4(5)-(4-pyridyl)-imidazole], the IC50 on p38 turned out to be 1250 nM; in the assay on TNF-α [1] (Homo sapiens, PBMC), 10 nM.
For `O=C1c2ccccc2C(=O)N1CCCn1c(CO)nc(-c2ccc(F)cc2)c1-c1ccncc1` [Compound 56], the IC50 in the assay with TNF-α [1] (human PBMC, LPS) worked out at 30 nM. Moreover, in the assay with TNF-α [2], the “inhibited TNF-α production in the mouse” value is listed as 37%.
Regarding `C=CCSc1nc(-c2ccncc2)c(-c2ccc(F)cc2)[nH]1` [Compound 37], the IC50 on p38 is 750 nM.
Turning to `O=Cc1nc(-c2ccncc2)c(-c2ccc(F)cc2)[nH]1` [Compound 8, 5(4)-(4-Fluorophenyl)-4(5)-(4-pyridyl)-2-imidazole carboxaldehyde], the IC50 was found to be 800 nM on p38 and 140 nM with TNF-α [1] (Homo sapiens, PBMC).
For `CC(=O)OCCCCc1nc(-c2ccc(F)cc2)c(-c2ccncc2)n1Cc1ccccc1` [Compound 17, 4-[1-Benzyl-4-(4-fluorophenyl)-5-(4-pyridyl)imidazol-2-yl]butyl acetate], the IC50 is 2630 nM on p38 and 500 nM with TNF-α [1] (Homo sapiens, PBMC).
Turning to `CC(=O)OCCCCc1nc(-c2ccncc2)c(-c2ccc(F)cc2)n1C(=O)OCc1ccccc1` [Compound 18], the CPSB % inhibition on p38 (@ 5 μm) is given as 10%.
With `O=C1c2ccccc2C(=O)N1CCCSc1nc(-c2ccc(F)cc2)c(-c2ccncc2)[nH]1` [Compound 2, 5(4)-(4-Fluorophenyl)-2-(3-phthalimidoprop-1-yl)thio-4(5)-(4-pyridyl)-imidazole], the IC50 was 790 to 1800 nM on p38 and 1000 nM with TNF-α [1] (Homo sapiens, PBMC).
For `N#CCSc1nc(-c2ccncc2)c(-c2ccc(F)cc2)[nH]1` [Compound 38], on p38, the IC50 was determined as 400 nM.
Consider `C[Si](C)(C)CCOCn1c(CCCCO)nc(-c2ccncc2)c1-c1ccc(F)cc1` [Compound 46], for which the CPSB % inhibition at p38 (@ 20 μm) was determined as 9%. In addition, in the assay on TNF-α [1] (human PBMC, LPS), the “TNF-α inhibition in words” value was “inactive”.
For the compound `O=C1c2ccccc2C(=O)N1CCCCc1nc(-c2ccncc2)c(-c2ccc(F)cc2)n1Cc1ccccc1` [Compound 43], on p38 (@ 5 μm), the CPSB % inhibition amounted to 8%.
Consider `CCCSc1nc(-c2ccncc2)c(-c2ccc(F)cc2)[nH]1` [Compound 1, 5(4)-(4-Fluorophenyl)2-(1-propyl)thio-4(5)-(4-pyridyl)-5(4)-imidazole], for which the IC50 on p38 amounted to 680 nM.
`NCCCSc1nc(-c2ccc(F)cc2)c(-c2ccncc2)[nH]1` [Compound 3, 2-(3-Aminoprop-1-yl)thio-5(4)-(4-fluorophenyl)4(5)-(4-pyridyl)-imidazole]: the CPSB % inhibition at p38 (@ 20 μm) was 26%.
For `CC(=O)OCCCCc1nc(-c2ccncc2)c(-c2ccc(F)cc2)n1Cc1ccccc1` [Compound 42], at p38 (@ 5 μm), the CPSB % inhibition turned out to be 2%.
Take `CC(C)Sc1nc(-c2ccncc2)c(-c2ccc(F)cc2)[nH]1` [Compound 22]: the IC50 at p38 was 470 nM.
Regarding `O=C1c2ccccc2C(=O)N1CCSc1nc(-c2ccc(F)cc2)c(-c2ccncc2)[nH]1` [Compound 25], at p38 (@ 5 μm), the CPSB % inhibition was found to be 52%. Moreover, the IC50 with TNF-α [1] (human PBMC, LPS) was determined as 500 nM.
As for `O=C(NCCCSc1nc(-c2ccc(F)cc2)c(-c2ccncc2)[nH]1)c1ccco1` [Compound 29], at p38 (@ 20 μm), the CPSB % inhibition came out at 91%. Besides, in the assay on TNF-α [1] (human PBMC, LPS), the IC50 was determined as 112 nM.
In the case of `CCCCSc1nc(-c2ccncc2)c(-c2ccc(F)cc2)[nH]1` [Compound 40], the IC50 on p38 was in the range of 280 to 700 nM.
On to `O=C(NCCCSc1nc(-c2ccncc2)c(-c2ccc(F)cc2)[nH]1)c1ccccc1` [Compound 26], for which the IC50 at p38 is 2180 nM; with TNF-α [1] (Homo sapiens, PBMC), 100 nM.
